Experimental data as given in patent publication US5474757A, “Prevention of acetaminophen overdose toxicity with organosulfur compounds” (priority 1992, dated 1995).
Several values for one entry are separate records, joined by “and”; a condition that tells them apart may be missing. Equal entries are not always repeated. Entries after “also recorded” stand apart in the source; their conditions may differ. Where two headings read alike, the source gives them in different places.

Key:
[1] = test system: acetaminophen-induced hepatotoxicity; assay: animal or person
Excerpt: Blood samples were obtained from the jugular vein of CO2 -anesthetizedanimals. The blood was allowed to clot at room temperature and serum was separated by centrifugation. […] Biochem. Biophys.
Randomly-selected samples of the major hepatic lobe were fixed in 10% buffered formalin for histological evaluation. Samples were subsequently embedded in Paraplast (Fisher Scientific) and sectioned at 6 μm on a rotary microtome. Tissue sections were stained with hematoxylin-eosine-phloxine for examination. Extent of tissue damage was determined using a Presage CV-6 Image Analysis System (Advanced Imaging Concepts, Inc.). Images of randomly-selected slides (3 slides/animal, 2-3 animals/group) containing full cross sections of the major hepatic lobe were projected onto a computer screen and the image captured. The areas of damage were then outlined on the screen and the areas quantated using interactive software. The area of damage was shown as a percentage of the total hepatic area for each section. All determinations were made without knowledge of treatment group.
Data were analyzed by the Newman-Keuls multiple comparison procedure on the rank score analysis.
All experiments were replicated at least once.
As a Comparative Example, 300 mg/kg N-acetylcysteine was also administered immediately after administration of 0.2 g/kg acetaminophen.
As a Comparative Example, 300 mg/kg N-acetylcysteine was also administered 1 hour after administration of 0.2 g/kg acetaminophen.

hepatotoxicity = conditions: cited from earlier work
[2] = test system: acetaminophen-induced hepatotoxicity; assay: Protective effect against acetaminophen overdose in rats (serum GPT, LDH, liver damage); format: in vivo, rat (male Fisher 344)
Procedure: Brady et al., "Effect of […] […] Biochem. […] Extent of tissue damage was determined using a […]-6 Image Analysis System (Advanced Imaging Concepts, Inc.). […] All determinations were made without knowledge of treatment group. […] All experiments were replicated at least once.

P-450 2E1 [3] = assay: Hepatic microsomal NDMA demethylase activity after a single oral dose in mice; format: in vivo, mouse; conditions: for NDMA demethylase activity, % of the control level: 50 mg/kg single oral dose
Procedure: (§1) Biochem. Biophys. 238:42-48 (1985).
(§2) In Example 3, this effect was studied in mice. In Example 3, changes in hepatic monooxygenase enzymes after a single oral dose of DASO2 were studied. DASO2 (50 mg/kg) was administrated to mice intragastrically and sacrificed at the indicated time. Control (0 time) mice received distilled water only.
(§3) Hepatic microsomal NDMA demethylase activity (O) is expressed as nmol HCHO produced/min/mg. Pentoxyresorufin ([ ]) and ethoxyresorufin dealkylase activities are expressed as pmol resorufin produced/min/mg. Each point represents the mean ±S.D. of five separate microsomal preparations. *p<0.05 compared to control.

P-450 1A2 = assay: Hepatic microsomal ethoxyresorufin (EORR) dealkylase activity after a single oral dose in mice; format: in vivo, mouse
Procedure: as §1, §2, §3

P-450 2E1 [4] = conditions: cited from earlier work; for liver microsomal P-450 2E1-dependent (NDMA demethylase) activity: treatment of rats
P-450 2E1 [5] = conditions: isolated rat liver microsomes; cited from earlier work
[6] = test system: p-nitrophenol hydroxylase; conditions: isolated rat liver microsomes; cited from earlier work
acetaminophen overdose = conditions: cited from earlier work; for protective action: animals; for protection in acetaminophen overdose: Prescott et al.
[7] = test system: acetaminophen bioactivation; conditions: cited from earlier work
[8] = APAP only, 0.2 g/kg oral, fasted mice, 24 h
[9] = 5 mg/kg oral, 1 h after APAP 0.4 g/kg
[10] = 5 mg/kg oral, 3 hours after APAP 0.4 g/kg
[11] = 15 mg/kg oral, 1 h after APAP 0.4 g/kg
[12] = 50 mg/kg oral, 1 hour after APAP 0.4 g/kg, mean ± SD of five rats
[13] = 50 mg/kg oral, 3 hours after APAP 0.4 g/kg
[14] = 50 mg/kg oral, 6 hours after APAP 0.4 g/kg
[15] = 5 mg/kg oral, immediately (0 min) after APAP 0.2 g/kg
[16] = 10 mg/kg oral, 20 min after APAP 0.2 g/kg
[17] = 25 mg/kg oral, 20 min after APAP 0.2 g/kg
[18] = 25 mg/kg oral, 1 hour after APAP 0.2 g/kg
[19] = 25 mg/kg oral, immediately (0 min) after APAP 0.2 g/kg
[20] = 50 mg/kg oral, immediately (0 min) after APAP 0.2 g/kg
[21] = orally less than 24 hours after the overdose
[22] = 600 mg/kg oral, 1 hour after APAP 0.4 g/kg
[23] = 600 mg/kg oral, 6 hours after APAP 0.4 g/kg
[24] = 300 mg/kg oral, 1 hour after APAP 0.2 g/kg
[25] = 300 mg/kg oral, immediately after APAP 0.2 g/kg

With `CC(=O)Nc1ccc(O)cc1` [APAP, N-acetyl-p-aminophenol, reference compound] the “Extent of liver damage” value [1, 8] was 26-40%, the LDH [1, 8] was 17227 ± 3464 U/L and the Survival [1, 8] was 2/5. For the same molecule, the “increase of serum LDH” value ([1]; acetaminophen 0.2 g/kg, mice) was 20 fold, the liver histology ([1]; acetaminophen 0.2 g/kg, surviving mice (FIG. 2B)) was “hepatocellular necrosis; also recorded: typical centrilobular degeneration, necrosis, and inflammation” and the “plasma acetaminophen level always associated with hepatic damage” value (hepatotoxicity; 4 hours after ingestion) was “greater than 300 mcg/ml”. For the same molecule, the “plasma acetaminophen level always associated with hepatic damage” value (hepatotoxicity; 12 hours after ingestion) was “greater than 50 mcg/ml”, the fatalities (hepatotoxicity; acute overdoses of less than 15 g) was “rare” and the “single dose after which hepatotoxicity may occur” value (hepatotoxicity; in vivo) was 7.5 to 10 g. The “plasma acetaminophen half-life above which hepatic necrosis is likely” value (hepatotoxicity; overdose) was “exceeds 4 hours”.

In the case of `C=CCS(=O)(=O)CC=C` [DASO2, diallyl sulfone], the “Extent of liver necrosis (grade)” value [2, 9] was 1, the GPT [2, 9] was 162 ± 27.3 U/L and the LDH [2, 9] was 377 ± 71 U/L. The “Extent of liver damage” value [2, 10] was 23-38%, the GPT [2, 10] was 139 ± 46 U/L and the “Extent of liver necrosis (grade)” value [2, 11] was 1. The GPT [2, 11] was 52 ± 8.2 U/L, the LDH [2, 11] was 222 ± 44 U/L and the “Extent of liver necrosis (grade)” value ([2]; 50 mg/kg oral, 1 h after APAP 0.4 g/kg) was 0. For the same molecule, the “Extent of liver damage” value ([2]; 50 mg/kg oral, 1 hour after APAP 0.4 g/kg) was 0-5%, the GPT [2, 12] was 48 ± 9 U/L and 48 ± 9.6 U/L and the LDH [2, 12] was 279 ± 50 U/L and 279 ± 41 U/L. The “Extent of liver necrosis (grade)” value ([2]; 50 mg/kg oral, 3 h after APAP 0.4 g/kg) was 1, the “Extent of liver damage” value [2, 13] was 4-8% and the GPT [2, 13] was 133 ± 64 U/L. For the same molecule, the LDH [2, 13] was 315 ± 120 U/L, the “Extent of liver necrosis (grade)” value ([2]; 50 mg/kg oral, 6 h after APAP 0.4 g/kg) was 2 and the “Extent of liver damage” value [2, 14] was 21-40%. For the same molecule, the GPT [2, 14] was 182 ± 47 U/L, the LDH [2, 14] was 375 ± 111 U/L and the minimal effective dose ([2]; Rattus norvegicus, rats, read-out: low dose at which protective effect was demonstrated) was 5 mg/kg. The “Extent of liver damage” value [1, 15] was 3-5%, the GPT [1, 15] was 51 ± 8 U/L and the LDH [1, 15] was 433 ± 98 U/L. For the same molecule, the Survival [1, 15] was 5/5, the GPT [1, 16] was 212 ± 1 U/L and the LDH [1, 16] was 16639 ± 8578 U/L. The Survival [1, 16] was 5/5, the GPT [1, 17] was 89 ± 13 U/L and the LDH [1, 17] was 648 ± 231 U/L. The Survival [1, 17] was 5/5, the “Extent of liver damage” value [1, 18] was 3-10% and the GPT [1, 18] was 110 ± 70 U/L. For the same molecule, the LDH [1, 18] was 1340 ± 1568 U/L, the Survival [1, 18] was 5/5 and the “Extent of liver damage” value [1, 19] was 5-10%. The GPT [1, 19] was 66 ± 18 U/L and 84 ± 37 U/L, the LDH [1, 19] was 611 ± 252 U/L and the Survival [1, 19] was 5/5. The “Extent of liver damage” value [1, 20] was 4-9%, the GPT [1, 20] was 79 ± 5 U/L and the LDH [1, 20] was 772 ± 1138 U/L and 772 ± 138 U/L. The Survival [1, 20] was 5/5, the ED (maximal) ([1]; Mus musculus, read-out: dose sufficient to produce maximal protection) was 5 mg/kg and the minimal effective dose ([1]; Mus musculus, read-out: low dose at which protective effect was demonstrated) was 5 mg/kg. The “NDMA demethylase activity, % of the control level” value (from here on “NDMA demethylase activity, %”) (P-450 2E1 [3]; 0.5 hours) was 31%, the “NDMA demethylase activity, %” value (P-450 2E1 [3]; 1 hour) was 54% and the “NDMA demethylase activity, %” value (P-450 2E1 [3]; 3 hours) was 49%. For the same molecule, the “NDMA demethylase activity, %” value (P-450 2E1 [3]; 6 hours) was 73%, the “hepatic cytochrome P-450 2E1 activity” value (P-450 2E1 [3]; oral administration, mice) was “rapid decreases” and the “ethoxyresorufin (EORR) dealkylase activity, % of control level” value (“ethoxyresorufin … % of control level” for short) (P-450 1A2; 50 mg/kg single oral dose, 0.5 hours) was 79%. For the same molecule, the “ethoxyresorufin … % of control level” value (P-450 1A2; 50 mg/kg single oral dose, 1 hour) was 39%, the “ethoxyresorufin … % of control level” value (P-450 1A2; 50 mg/kg single oral dose, 3 hours) was 52% and the “ethoxyresorufin … % of control level” value (P-450 1A2; 50 mg/kg single oral dose, 6 hours) was 46%. The EORR dealkylase activity (P-450 1A2; 50 mg/kg single oral dose, after 15 hours) was “returned to control levels”, the “hepatic cytochrome P-450 1A2 activity” value (P-450 1A2; oral administration, mice) was “rapid decreases” and the “liver microsomal NDMA demethylase activity” value (P-450 2E1 [4]; 200 mg/kg, rats) was “marked decrease”. The “liver microsomal P-450 2E1-dependent (NDMA demethylase) activity” value (P-450 2E1 [4]) was “decreased”.

In the case of `C=CC[S+]([O-])CC=C` [DASO, diallyl sulfoxide], the “inhibition of P-450 2E1-catalyzed NDMA demethylase” value (P-450 2E1 [5]) is given as “competitively”, the “inhibition of p-nitrophenol hydroxylase” value [6] is given as “competitively” and the “liver microsomal P-450 2E1-dependent (NDMA demethylase) activity” value (P-450 2E1 [4]) is given as “decreased”.

For `N[C@@H](CS)C(=O)O` [L-cysteine], the protective action (acetaminophen overdose) is listed as “protective action” and the “effectiveness in acetaminophen overdose” value (acetaminophen overdose; [21]) is listed as “effective”.

For `CSCC[C@H](N)C(=O)O` [L-methionine], the “protection in acetaminophen overdose” value (acetaminophen overdose) is given as “some protection”, the protective action (acetaminophen overdose) is given as “protective action” and the “effectiveness in acetaminophen overdose” value (acetaminophen overdose; [21]) is given as “effective”.

With `CC(=O)N[C@@H](CS)C(=O)O` [N-AC, N-acetyl-L-cysteine, reference compound] the “Extent of liver damage” value [2, 13] was 17-38%, the GPT [2, 13] was 135 ± 40 U/L and the “prevention of liver necrosis and GPT elevation” value ([2]; 50 mg/kg, 3 hours after APAP, rats) was “partially prevented the development of liver necrosis and the elevation of the GPT level”. The “Extent of liver damage” value [2, 22] was 1-5%, the GPT [2, 22] was 47 ± 4 U/L and the LDH [2, 22] was 174 ± 35 U/L. For the same molecule, the “Extent of liver damage” value [2, 23] was 13-28%, the GPT [2, 23] was 153 ± 62 U/L and the LDH [2, 23] was 269 ± 92 U/L. The “protection against liver toxicity” value ([2]; 600 mg/kg, 1 hr after APAP, compared with DASO2 50 mg/kg, rats) was “as effective as DASO2 (50 mg/kg) in preventing liver toxicity”, the protection ([2]; 600 mg/kg, 6 hours after APAP, rats) was “partial protection” and the “dosage needed for similar protection relative to DAS / DASO2” value ([2]; N-acetylcysteine dose versus DAS and DASO2 dose) was “more than ten-fold higher”. For the same molecule, the “Extent of liver damage” value [1, 24] was 10-17%, the GPT [1, 24] was 131 ± 68 U/L and the LDH [1, 24] was 1140 ± 96 U/L. For the same molecule, the Survival [1, 24] was 5/5, the “Extent of liver damage” value [1, 25] was 0% and the GPT [1, 25] was 56 ± 4 U/L. For the same molecule, the LDH [1, 25] was 629 ± 124 U/L, the Survival [1, 25] was 5/5 and the protection against hepatotoxicity ([1]; 300 mg/kg, 1 hour after acetaminophen, mice) was “partial protection”. For the same molecule, the “protection against acetaminophen toxicity” value ([1]; 300 mg/kg, immediately after acetaminophen, mice) was “protected against acetaminophen toxicity”, the “effectiveness against acetaminophen toxicity” value ([1]; 3 hours after acetaminophen dosing, mice (data not shown)) was “neither DASO2, N-AC nor the combination treatment was effective” and the protective action (acetaminophen overdose) was “protective action”. For the same molecule, the “effectiveness in acetaminophen overdose” value (acetaminophen overdose; given orally) was “effective” and the “effectiveness in acetaminophen overdose” value (acetaminophen overdose; [21]) was “effective”.

For `CN/C(=N/CCSCc1nc[nH]c1C)NC#N` [cimetidine], the “inhibition of acetaminophen bioactivation” value [7] is given as “inhibit acetaminophen bioactivation”.

In the case of `NCCS` [cysteamine], the “protection in acetaminophen overdose” value (acetaminophen overdose) is listed as “some protection”.

For `C[S+](C)[O-]` [dimethyl sulfoxide], the “inhibition of acetaminophen bioactivation” value [7] is listed as “inhibit acetaminophen bioactivation”.

For `CCO` [ethanol], the “inhibition of acetaminophen bioactivation” value [7] is listed as “inhibit acetaminophen bioactivation”.
